Experimental data taken from US9849131B2 (AUTIFONY THERAPEUTICS LIMITED, priority 2009, dated 2017).

How the values were obtained:
[1] = Blood concentrations in satellite animals of the electroshock seizure study; type: in vivo, rat; parameters: unbound concentration in blood: unit not given here; conditions: for unbound concentration in blood: rat
Experimental: Testing involved determining the threshold for tonic hindlimb extensor seizures using a Hugo Sachs Electronik stimulator which delivers a constant current of 0.3 second duration, 50 Hz, sinewave form, fully adjustable between 1 and 300 mA. Stimuli were delivered via corneal electrodes (Stean T O, Atkins A R, Heidbreder C A, Quinn L P, Trail B K, Upton N. (2005) Br J Pharmacol. 144(5):628-35). Seizure threshold was determined using the ‘up and down’ method of Kimball et al. (1957)(Kimball A W, Burnett W T Jr, Doherty D G. (1957) Radiat Res. 7(1):1-12). The first animal tested in each group was stimulated with a current that might be expected to be close to the threshold for induction of a seizure. If a tonic seizure was not induced, then the next animal in the group received a stimulus 5 mA higher. If a tonic seizure was induced, then the next animal received a stimulus 5 mA lower. This is repeated for all animals within the control (vehicle) group. In the case of groups treated with a test compound steps of 5 to 10 mA were used. At the end of the study, blood samples were taken for analysis of the drug concentrations in this compartment (n=4/group).
Blood concentrations of Compound 19 measured in satellite animals 2 hours after dosing were 5.3 and 9.11 μg/mL following the doses of 30 and 60 mg/kg p.o., respectively.

Male CD-1 mice = assay: Psychostimulant (amphetamine)-induced hyperactivity in mice (Example 93); conditions: mouse; for Total Distance Travelled (cm): 60 minutes, mean ± sem
[2] = tested on: parvalbumin-positive interneurons in the somatosensory cortex; assay: Firing of parvalbumin-positive interneurons in somatosensory cortex slices, in vitro (Example 90); type: cell-based, mouse; conditions: vs TEA alone, p<0.05
hKv3.2 = target: T1, hKv3.2 (Homo sapiens, UniProt Q96PR1); assay: IonWorks Quattro assay, secondary analysis of activation time constant (Tauact); type: cell-based; conditions: classification from effect on Tauact
T1 construct: expressed in transfected cells; host or cells: CHO-K1
T1 sequence (Q96PR1 1-638): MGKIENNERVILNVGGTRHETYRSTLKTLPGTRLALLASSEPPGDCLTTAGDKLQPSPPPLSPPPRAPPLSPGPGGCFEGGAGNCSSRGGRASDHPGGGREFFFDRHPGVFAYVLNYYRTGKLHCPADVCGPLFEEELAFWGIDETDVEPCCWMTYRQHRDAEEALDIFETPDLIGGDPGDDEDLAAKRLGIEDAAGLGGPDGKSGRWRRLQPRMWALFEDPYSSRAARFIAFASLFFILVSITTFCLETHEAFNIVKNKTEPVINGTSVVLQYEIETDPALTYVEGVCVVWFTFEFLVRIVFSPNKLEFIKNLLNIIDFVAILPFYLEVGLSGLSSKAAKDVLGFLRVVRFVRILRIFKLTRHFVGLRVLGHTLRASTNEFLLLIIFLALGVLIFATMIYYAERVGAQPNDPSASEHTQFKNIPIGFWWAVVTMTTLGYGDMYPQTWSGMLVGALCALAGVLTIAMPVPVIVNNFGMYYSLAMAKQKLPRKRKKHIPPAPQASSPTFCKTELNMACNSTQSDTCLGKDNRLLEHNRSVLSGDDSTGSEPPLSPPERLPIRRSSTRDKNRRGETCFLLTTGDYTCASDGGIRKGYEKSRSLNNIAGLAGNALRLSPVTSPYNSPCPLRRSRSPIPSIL
Experimental: A stable cell line expressing human Kv3.2 channels (hKv3.2) was created by transfecting Chinese Hamster Ovary (CHO)-K1 cells with a pCIH5-hKv3.2 vector. Cells were cultured in DMEM/F12 medium supplemented by 10% Foetal Bovine Serum, 1× non-essential amino acids (Invitrogen) and 500 ug/ml of Hygromycin-B (Invitrogen). Cells were grown and maintained at 37° C. in a humidified environment containing 5% CO2 in air.
The day of the experiment, cells were removed from the incubator and the culture medium removed. Cells were washed with 5 ml of Dulbecco's PBS (DPBS) calcium and magnesium free and detached by the addition of 3 ml Versene (Invitrogen, Italy) followed by a brief incubation at 37° C. for 5 minutes. The flask was tapped to dislodge cells and 10 ml of DPBS containing calcium and magnesium was added to prepare a cell suspension. The cell suspension was then placed into a 15 ml centrifuge tube and centrifuged for 2 min at 1200 rpm. After centrifugation, the supernatant was removed and the cell pellet re-suspended in 4 ml of DPBS containing calcium and magnesium using a 5 ml pipette to break […] up the pellet. Cell suspension volume was then corrected to give a cell concentration for the assay of approximately 3 million cells per ml.
Experiments were conducted at room temperature using IonWorks Quattro™ planar array electrophysiology technology (Molecular Devices Corp.) with PatchPlate™ PPC. Stimulation protocols and data acquisition were carried out using a microcomputer (Dell Pentium 4). Planar electrode hole resistances (Rp) were determined by applying a 10 mV voltage step across each well. These measurements were performed before cell addition. […] Following this, amphotericin-B solution was added to the intracellular face of the electrode to achieve intracellular access. Cells were held at −70 mV. Leak subtraction was conducted in all experiments by applying 50 ms hyperpolarizing (10 mV) prepulses to evoke leak currents followed by a 20 ms period at the holding potential before test pulses. From the holding potential of −70 mV, a first test pulse to −15 mV was applied for 100 ms and following a further 100 ms at −70 mV, a second pulse to 40 mV was applied for 50 ms. Cells were then maintained for a further 100 ms at −100 mV and then a voltage ramp from −100 mV to 40 mV was applied over 200 ms. In all experiments, the test pulses protocol was performed in the absence (pre-read) and presence (post-read) of the test compound. Pre- and post-reads were separated by the compound addition followed by a 3 minute incubation.
The magnitude of the effect of a compound can be determined from the time constant (Tauact) obtained from a non-linear fit, using the equation given below, of the rise in Kv3.1 or Kv3.2 currents following the start of the depolarising voltage pulse. Y=(Y0−Ymax)*exp(−K*X)+Ymax
Where: • Y0 is the current value at the start of the depolarising voltage pulse; • Ymax is the plateau current;
K is the rate constant, and Tauact is the activation time constant, which is the reciprocal of K.

CC[C@H]1NC(=O)N(c2ccc(Oc3ccc(C)c(OC)c3)nc2)C1=O [Example 19, (5R)-5-ethyl-3-(6-{[4-methyl-3-(methyloxy)phenyl]oxy}-3-pyridinyl)-2,4-imidazolidinedione]
concentration at 2 h ([1]; CD, whole blood, oral, rat satellite animals, 2 hours after 60 mg/kg p.o.): 9110 ng/mL | unbound concentration in blood ([1]; 2 hours after 30 mg/kg p.o.): 1.3 | unbound concentration in blood ([1]; 2 hours after 60 mg/kg p.o.): 2.21 | effect on the increase in total distance travelled produced by amphetamine (Male CD-1 mice; 30 mg/kg p.o.): significantly reduced | effect on the increase in locomotor activity induced by amphetamine (Male CD-1 mice; 60 mg/kg p.o., similar to clozapine 3 mg/kg i.p.): further reduced | Total Distance Travelled (cm) (Male CD-1 mice; AMPH 2 mg/kg i.p. + compound 30 mg/kg p.o. 30 minutes before): 5790 ± 1436 cm | Total Distance Travelled (cm) (Male CD-1 mice; AMPH 2 mg/kg i.p. + compound 60 mg/kg p.o. 30 minutes before): 1494 ± 378 cm | reversal of TEA-induced lowering of maximal firing frequency ([2]; TEA (0.5 mM) plus compound at 10 μM): significantly reversed | reversal of TEA-induced lowering of maximal firing frequency ([2]; TEA (0.5 mM) plus compound): significantly reversed | acts as positive or negative modulator of Kv3.1 and/or Kv3.2 (hKv3.2): positive modulators
